Reference: patent US20190124918A1, “BIOFILM FORMATION INHIBITOR AND BIOFILM FORMATION INHIBITING COMPOSITION” (KAO CORPORATION, priority 2016, published 2019)

System: biofilm-forming microbe isolated from cooling water taken from a water cooling tower
Assay: Biofilm inhibition test, quinone-based compound and chelating agent (OD570)
Assay type: cell-based
Description: A biofilm-forming microbe (microbe showing a OD570 value of 0.3 or more in the test for determining the amount of biofilm (the following section 2-4)) isolated from cooling water taken from a water cooling tower was cultured in R2A culture medium at 30° C. for 16 hours while shaking. The turbidity (OD600) of the resultant culture solution was measured. The culture solution was diluted with R2A culture medium to prepare a suspension of 10^3 cfu/mL.
Predetermined amounts of p-toluquinone and HEDP were weighed and solvent (MDG) was added to prepare a composition. Since citric acid and EDTA were not dissolved in MDG, they were directly added in culture solutions; at the same time, p-toluquinone was directly added to the culture solutions.
The suspension of a test microbe prepared in the above section 2-1) was added in individual wells of a 96 well microplate in an amount of 150 μL, and then, the test solutions prepared in the above section 2-2) was each added and culture was initiated.
After the 96 well microplate was subjected to stationary culture performed at 30° C. for 48 hours, the culture solution was removed and the resultant microplate was washed with water. Subsequently, each well was stained with 0.1% crystal violet and 200 μL of ethanol was added. The absorbance (OD570) was measured to obtain the amount of biofilm (BF) formed.

CC1=CC(=O)C=CC1=O [Compound a, p-Toluquinone]
BF inhibitory effect of combined use of HEDP and p-toluquinone compared with p-toluquinone alone (Experiment No. 2 compared to Nos. 5 to 8): higher | OD570 (Experiment No. 12: Toluquinone 5 ppm, Citric acid 0 ppm, 0 ppm/0 ppm gave 0.329): 0.236 | BF inhibitory effect of combined use of citric acid and p-toluquinone compared with p-toluquinone alone (Experiment No. 12 compared to Nos. 15 to 18): higher | OD570 (Experiment No. 13: Toluquinone 10 ppm, Citric acid 0 ppm, 0 ppm/0 ppm gave 0.329): 0.048 | OD570 (Experiment No. 14: Toluquinone 20 ppm, Citric acid 0 ppm, 0 ppm/0 ppm gave 0.329): 0.051 | OD570 (Experiment No. 15: Toluquinone 5 ppm, Citric acid 0.5 ppm, 0 ppm/0 ppm gave 0.329): 0.057 | OD570 (Experiment No. 16: Toluquinone 5 ppm, Citric acid 2.5 ppm, 0 ppm/0 ppm gave 0.329): 0.054 | OD570 (Experiment No. 17: Toluquinone 5 ppm, Citric acid 5 ppm, 0 ppm/0 ppm gave 0.329): 0.054 | OD570 (Experiment No. 18: Toluquinone 5 ppm, Citric acid 10 ppm, 0 ppm/0 ppm gave 0.329): 0.053 | OD570 (Experiment No. 21: Tuluquinone 5 ppm, EDTA 0 ppm, 0 ppm/0 ppm gave 0.407): 0.358 | BF inhibitory effect of combined use of EDTA and p-toluquinone compared with p-toluquinone alone (Experiment No. 21 compared to Nos. 24 to 26): higher | OD570 (Experiment No. 22: Tuluquinone 10 ppm, EDTA 0 ppm, 0 ppm/0 ppm gave 0.407): 0.048 | OD570 (Experiment No. 23: Tuluquinone 20 ppm, EDTA 0 ppm, 0 ppm/0 ppm gave 0.407): 0.051 | OD570 (Experiment No. 24: Tuluquinone 5 ppm, EDTA 2.5 ppm, 0 ppm/0 ppm gave 0.407): 0.151 | OD570 (Experiment No. 25: Tuluquinone 5 ppm, EDTA 5 ppm, 0 ppm/0 ppm gave 0.407): 0.077 | OD570 (Experiment No. 26: Tuluquinone 5 ppm, EDTA 10 ppm, 0 ppm/0 ppm gave 0.407): 0.078
